In patent publication US20250297321A1, “METHOD FOR DETECTING METABOLIC REPROGRAMING OF CANCER TOWARDS FATTY ACIDS METABOLISM” (INSTITUT NATIONAL DE LA SANTE ET DE LA RECHERCHE MEDICALE, priority 2022, published 2025):

Key:
Format in all cases: cell-based, human
Huh7 cells [1] = experiment: Huh7 cell growth (RelB overexpressing cells); settings: 4-BCA 10 μM, 48 h, vs control cells (FIG. 4B)
Protocol: (§1) Huh7 HCC cell line and genetically engineered derivatives targeting RelB expression levels (knock-down of RelB expression: Huh7 shRNA human RelB & Huh7 shRNA control; RelB overexpression: Huh7 cDNA human WT Rel & Huh7 cDNA control) were grown in MEM culture medium supplemented with 10% of fetal bovine serum (FBS), 100 U/mL penicillin, and […] streptomycin, 25 mM Hepes Buffer, 1 mM of sodium pyruvate, 1% of non-essential amino-acids (NEAA), which stands for standard culture medium. Huh7 genetically engineered cell lines were only used at passage P1 to P6. Cells passaging occurred twice a week to maintain a condition of 75% confluence. To evaluate the effect of fatty acid treatment, Huh7 cells cultured in FBS-free medium for hours were treated for 16 hours in FBS-free medium supplemented with various concentration (50 to 300 μM) of either oleic or palmitic acid along with 1% of free fatty acid bovine serum albumin.
(§2) Cell viability was assessed using trypan blue dye exclusion.

OCILY19 cells = experiment: Induction of cell death in OCILY19 cells
Protocol: (§3) DLBCL cells were harvested and washed twice with cold PBS. Cells were resuspended in 1× binding buffer containing Annexin V/APC (BD Biosciences Pharmingen) and 4′,6-diaminidino-2-phenylindole (DAPI, Molecular Probes) for 15 min at room temperature. The samples were subjected to cytometric analysis with a MACSQuant Analyzer 10 Flow Cytometer (Miltenyi Biotec) and the data were analyzed using the Flowjo v10.2 software.
as §2

SUDHL-4 cells = experiment: Induction of cell death in SUDHL-4 cells; settings: glycolytic BCR SUDHL-4 cells
Protocol: as §3, §2

MD901 cells = experiment: Induction of cell death in MD901 cells
Protocol: as §3, §2

Huh7 cells [2] = experiment: Huh7 cell death, DAPI staining; settings: RelB overexpressing Huh7, palmitic acid 50 μM, 0% FBS, 48 h, in presence of 4-BCA (FIG. 4C)
Protocol: as §1, with “Huh7 cells cultured in FBS-free medium for hours were treated for 16 hours in FBS-free medium supplemented with various concentration (50 to 300 μM) of either oleic or palmitic acid along with 1% of free fatty” left out
Huh7 cells were stained with 4′, 6-diamidino-2-phenylindole (DAPI). Then, images were acquired for DAPI positive cells by fluorescent microscopy (magnification: 20×) on at least 6 different fields combined with one acquisition under white light to quantify the total number of cells in the same field. Quantification was carried out by image J software. Cell death is expressed in percentage (number of DAPI positive cells/total number of cells per field)*100).

MD901 DLBCL cell line [3] = experiment: Mitochondrial transmembrane potential (TMRM) in MD901; settings: RelB knocked-down MD901, TMRM low (FIG. 8B)
Protocol: For determination of mitochondrial transmembrane potential (ΔΨm), cells were stained with 100 nM of Tetramethyl rhodamine methyl ester (TMRM) (Molecular Probes) in RPMI-1640 Glutamax medium for 30 min at room temperature. Cells were evaluated by cytometric analysis as above. During apoptosis, the permeabilization of the mitochondrial outer membrane leads to loss of mitochondrial transmembrane potential (ΔΨm) corresponding to TMRM low/DAPI neg cells.

MD901 DLBCL cell line [4] = experiment: Annexin V/DAPI apoptosis assay in MD901; settings: for Apoptosis by Annexin V/DAPI staining: MD901 (FIG. 8A); for Drug-induced apoptosis upon RelB-expression knockdown: RelB knocked-down MD901 vs shRNA control (FIG. 8A)
Protocol: MD901 and SUDHL-4 DLBCL cell lines were obtained from Jos6 Angel Martinez-Climent (Centro de Investigación Médica Aplicada, Pamplona, Spain).
as §3

O=C(O)/C=C/CBr [4-BCA, 4-bromocrotonic acid]
Cell growth in RelB overexpressing Huh7 cells (Huh7 cells [1]): the RelB-dependent increase in Huh7 cell number was lost and cell growth rate was even lowered compared to the control cells
Cell death upon inhibition of fatty acid oxidation (OCILY19 cells; Oci-Ly19, as soon as 24 hours post-treatment (FIG. 10A)): massive and rapid cell death
Sensitivity to 4-BCA treatment (SUDHL-4 cells; compared with MD901 / Oci-Ly19 (not shown)): much less sensitive
Cell death upon inhibition of fatty acid oxidation (MD901 cells; MD901, as soon as 24 hours post-treatment (FIG. 9A)): massive and rapid cell death
Cell death (DAPI positive cells), RelB pro-survival effect against palmitate (Huh7 cells [2]): RelB pro-survival effect was almost completely abolished

C=C1C(=O)OC(CCCCCCCC)C1C(=O)O (stereo not shown) [C75]
Cell death upon inhibition of fatty acid synthesis (OCILY19 cells; Oci-Ly19, as soon as 24 hours post-treatment (FIG. 12A)): massive and rapid cell death
Sensitivity to C75 (SUDHL-4 cells; compared with MD901 / Oci-Ly19): much less sensitive
Cell death upon inhibition of fatty acid synthesis (MD901 cells; MD901, as soon as 24 hours post-treatment (FIG. 11A)): massive and rapid cell death

CN(C)C(=N)N=C(N)N [Metformin, metformin]
Loss of mitochondrial potential upon RelB-expression knockdown (MD901 DLBCL cell line [3]): increase in loss of mitochondrial potential
Apoptosis by Annexin V/DAPI staining (MD901 DLBCL cell line [4]): significant apoptosis
Cell death induced by metformin upon knockdown of RelB expression (MD901 DLBCL cell line [4]; RelB knocked-down MD901): even more pronounced cell death
Drug-induced apoptosis upon RelB-expression knockdown (MD901 DLBCL cell line [4]): markedly increased

COc1cc(Nc2ncc(F)c(Nc3ccc4c(n3)NC(=O)C(C)(C)O4)n2)cc(OC)c1OC [R406]
Sensitivity to R406-induced apoptosis (MD901 DLBCL cell line [4]; MD901 (FIG. 6A)): insensitive

B1: Kidrolase®: L-asparaginase; catalyzes the hydrolysis of asparagine and glutamine into aspartate and glutamate (protein, UniProt P00805 23-348, looked up)
L-asparaginase 2: LPNITILATGGTIAGGGDSATKSNYTVGKVGVENLVNAVPQLKDIANVKGEQVVNIGSQDMNDNVWLTLAKKINTDCDKTDGFVITHGTDTMEETAYFLDLTVKCDKPVVMVGAMRPSTSMSADGPFNLYNAVVTAADKASANRGVLVVMNDTVLDGRDVTKTNTTDVATFKSVNYGPLGYIHNGKIDYQRTPARKHTSDTPFDVSKLNELPKVGIVYNYANASDLPAKALVDAGYDGIVSAGVGNGNLYKSVFDTLATAAKTGTAVVRSSRVPTGATTQDAEVDDAKYGFVASGTLNPQKARVLLQLALTQTKDPQQIQQIFNQY
Loss of mitochondrial potential upon RelB-expression knockdown (MD901 DLBCL cell line [3]): increase in loss of mitochondrial potential
Apoptosis by Annexin V/DAPI staining (MD901 DLBCL cell line [4]): significant apoptosis
Drug-induced apoptosis upon RelB-expression knockdown (MD901 DLBCL cell line [4]): markedly increased
